Source: patent US20160220710A1, “COMPOSITIONS AND METHODS FOR DELIVERING PHARMACEUTICAL AGENTS” (THE REGENTS OF THE UNIVERSITY OF MICHIGAN, priority 2015, published 2016)
Entries after “also recorded” stand apart in the source; their conditions may differ.

Tests used:
[1] = test system: TLR2, TLR4, TLR9 and MyD88; assay: Western blot of TLR2, TLR4, TLR9 and MyD88 in RAW 264.7 cells; type: cell-based, murine; conditions: 24 h incubation
Description: The murine macrophage cell line RAW 264.7 was purchased from ATCC (Manassas, Va.) and maintained in DMEM (Life Technologies, Carlsbad, Calif.) supplemented with 10% FBS. Soluble CFZ or isolated CLDIs were added at various concentrations in DMEM with 5% FBS to 6-well plates containing 4×10^5 cells/well and incubated (24 h at 37° C. and 5% CO2). Culture supernatants were harvested at 24 h, centrifuged (1500×g for 5 min), and stored (−20° C.) in frozen aliquots prior to analysis. For experiments involving TLR stimulation, cells were washed twice with pre-warmed DPBS to remove extracellular, non-phagocytosed CLDIs or CFZ, and then the cells were serum-starved for 18 h in DMEM. Supernatants were collected from unstimulated cells and cells stimulated with 200 ng/ml Pam3 or 1 μg/ml LPS in DMEM.

[2] = Measurement of CFZ in tissues; type: in vivo, mice
Description: Mice (4 week old, male C57Bl6) were purchased from the Jackson Laboratory (Bar Harbor, Me.) and acclimatized for 1 week in a specific-pathogen-free animal facility. Animal care was provided by the University of Michigan's Unit for Laboratory Animal Medicine (ULAM), and the experimental protocol was approved by the Committee on Use and Care of Animals. Clofazimine (CFZ) (C8895; Sigma-Aldrich, St. Louis, Mo.) was dissolved in sesame oil (Roland, China, or Shirakiku, Japan) to achieve a concentration of 3 mg/ml, which was mixed with Powdered Lab Diet 5001 (PMI International, Inc., St. Louis, Mo.) to produce a 0.03% drug to powdered feed (Baik et al., 2013, supra). […]
CFZ mass was measured as previously reported (Baik et al., 2012, supra; Venkatesan, et al., Arzneim. Forsch. 2007, 57, 472-474). […] CFZ mass was spectrophotometrically determined in methanol (λ=490 nm) and the concentration was calculated using a standard curve generated by spiking extracted tissue of the control (vehicle-only treated) mice tissue with known amounts of drug. The tissue-to-fat partition ratios were computed based on mass of drug in the various tissues relative to mass of drug in total body fat (units: dimensionless; calculated as [mg CFZ/g tissue]/[mg CFZ/g fat]). […] CFZ mass was measured in relation to the measured weight of the tissue or plasma volume.

[3] = test system: carrageenan-induced footpad inflammation; assay: Carrageenan foot edema test; type: in vivo, mice
Description: Clofazimine (CFZ, Sigma-Aldrich, C8895) was prepared in sesame oil (Shirakiku, Japan, or Roland, China) and Powdered Lab Diet 5001 (PMI International, Inc., St. Louis, Mo.) and orally administrated to Wild-type (WT) C57BL/6 mice or IL-1RA^−/− (4-5 week old, Jackson Laboratory, Bar Harbor, Me.) for up to 8 weeks ad libitum as previously described (Baik et al., 2013, supra; Baik et al., 2011, supra). Control mice were fed with the same diet without CFZ. The animal protocol was approved by the University of Michigan's Animal Care and Use Committee in accordance with the National Institutes of Health guidelines (UCUCA #PRO0005111).
Foot inflammation in response to carrageenan injection was conducted in CFZ and control mice as previously described (Otterness I G, et al., Moore P F (1988) Immunochemical Techniques Part L: Chemotaxis and Inflammation (Elsevier) doi:10.1016/0076-6879(88)62086-6). In brief, the volume of each hind paw was measured with a caliper before and after the intraplantar injection of 30 μl 2% carrageenan ([…]) in PBS or equal volume of PBS in the contralateral paw. Paw swelling was measured at 4 and 48 h after injection, after which the animals were euthanized by exsanguination while deeply anesthetized with an intraperitoneal injection of ketamine (100 mg/kg) and xylazine (10 mg/kg), and the skin tissues of the plantar region were harvested for cytokine assay (see below).

SMILES: CC(C)/N=c1\cc2n(-c3ccc(Cl)cc3)c3ccccc3nc-2cc1Nc1ccc(Cl)cc1 [CFZ, 3-(p-chloroanilino)-10-(p-chlorophenyl)-2, 10-dihydro-2-isopropyliminophenazine]
- TLR2 and TLR4 expression [1]: upregulated TLR2 and TLR4 expression
- CFZ mass retained in spleen ([2]; after the eight week washout period): exceeded its combined mass retained in the other organs
- Kp ([2]; male, C57Bl6, mouse, adipose tissue / serum, 10 mg/kg per day, starting at three weeks of oral administration, read-out: CFZ concentration in adipose tissue relative to serum): > 10000
- footpad homogenate IL-1RA levels ([3]; 2 weeks of CFZ treatment, 48 h): reduced
- paw swelling vs untreated mice ([3]; 2 weeks of CFZ treatment, 48 h (legend: 4 and 48 h)): only a modest reduction in paw swelling; also recorded: only a minor reduction in swelling at 4 and 48 h
- reduction in paw swelling vs untreated mice ([3]; 8 week CFZ-treated, 4 h post-injection): 57%
- plasma IL-1RA levels after carrageenan ([3]; 8 week CFZ-treated, 4 h post-injury): rapidly declined at 4 h post-injury
- footpad homogenate IL-1RA levels ([3]; 8 week CFZ-treated, 48 h): increased
- footpad homogenate IL-1β and TNFα levels ([3]; 8 week CFZ-treated, 48 h): dramatically reduced
- paw swelling vs untreated mice ([3]; 8 week CFZ-treated, 48 h post-injection): strikingly reduced swelling
- anti-inflammatory effect (paw swelling) ([3]; IL-1RA KO mice, 6 weeks CFZ): greatly diminished in IL-1RA KO mice
- paw swelling ([3]; WT mice, 6 weeks CFZ): reduced swelling compared to untreated and injured mice
- footpad IL-1β levels ([3]; WT mice, 6 weeks CFZ, injured): significantly reduced
- plasma levels of TNFα and IL-1β ([3]; all mice, ELISA detection limit): < 15 pg/mL
